# Data reported in patent US4180658A, “7[-2-Alkoxyamino(acetamido)]cephalosporin derivatives” (Bristol-Myers Company, priority 1978, dated 1979).
# Like-named read-outs stand apart in the source and are kept apart here.
# Columns and labels:
# S. pneumoniae = test: Antibiotic Activity in Nutrient Broth (MIC); format: cell-based; details: Streptococcus pneumoniae, 10^-3 dilution of overnight broth culture, 45% AAB + 5% serum + 50% broth
# Procedure: (§1) Biological testing was performed according to the procedures described by F. Leitner et al., Antimicrobial Agents and Chemotherapy 10(3), 426-435 (September, 1976).
# (§2) Antibiotic Activity in Nutrient Broth
# (§3) *45% AAB + 5% serum + 50% broth listed above.
# (§4) **Dilution of overnight broth culture.
# Str. pyogenes = test: Antibiotic Activity in Nutrient Broth (MIC); format: cell-based; details: Streptococcus pyogenes, 10^-3 dilution, 45% AAB + 5% serum + 50% broth
# Procedure: as §1, §2, §3, §4
# E. coli Juhl = test: Antibiotic Activity in Nutrient Broth (MIC); format: cell-based; details: Escherichia coli, 10^-4 dilution
# Procedure: as §1, §2, §4
# Ent. cloacae = test: Antibiotic Activity in Nutrient Broth (MIC); format: cell-based
# Procedure: as §1, §2, §4
# K. pneumoniae = test: Antibiotic Activity in Nutrient Broth (MIC); format: cell-based; details: 10^-4 dilution
# Procedure: as §1, §2, §4
# Pr. mirabilis = test: Antibiotic Activity in Nutrient Broth (MIC); format: cell-based
# Procedure: as §1, §2, §4
# Pr. morganii = test: Antibiotic Activity in Nutrient Broth (MIC); format: cell-based; details: Morganella morganii, 10^-4 dilution
# Procedure: as §1, §2, §4
# Pr. rettgeri = test: Antibiotic Activity in Nutrient Broth (MIC); format: cell-based; details: Providencia rettgeri, Table 1, 10^-4 dilution
# Procedure: as §1, §2, §4
# Pr. vulgaris = test: Antibiotic Activity in Nutrient Broth (MIC); format: cell-based; details: Proteus vulgaris, Table 1, 10^-4 dilution
# Procedure: as §1, §2, §4
# Ps. aeruginosa carb. = test: Antibiotic Activity in Nutrient Broth (MIC); format: cell-based; details: Pseudomonas aeruginosa, Table 1, 10^-4 dilution
# Procedure: as §1, §2, §4
# Ps. aeruginosa = test: Antibiotic Activity in Nutrient Broth (MIC); format: cell-based; details: 10^-4 dilution
# Procedure: as §1, §2, §4
# S. aureus BX1633 = test: Antibiotic Activity in Nutrient Broth (MIC); format: cell-based; details: Staphylococcus aureus
# Procedure: as §1, §2, §4
# S. aureus Meth-Res = test: Antibiotic Activity in Nutrient Broth (MIC); format: cell-based; details: Staphylococcus aureus, 10^-3 dilution
# Procedure: as §1, §2, §4
# S. aureus Smith = test: Antibiotic Activity in Nutrient Broth (MIC); format: cell-based; details: Staphylococcus aureus, 10^-4 dilution
# Procedure: as §1, §2, §4
# Sal. enteritidis = test: Antibiotic Activity in Nutrient Broth (MIC); format: cell-based; details: Salmonella enterica, Table 1, 10^-4 dilution
# Procedure: as §1, §2, §4
# Ser. marcescens = test: Antibiotic Activity in Nutrient Broth (MIC); format: cell-based
# Procedure: as §1, §2, §4
# Str. faecalis = test: Antibiotic Activity in Nutrient Broth (MIC); format: cell-based; details: Enterococcus faecalis, Table 1, 10^-4 dilution
# Procedure: as §1, §2, §4
# S. aureus = test: Antibiotic Activity in Nutrient Broth + 50% serum (MIC); format: cell-based; details: Staphylococcus aureus, Table 1, 10^-4 dilution
# Procedure: as §1, §2, §4
# Enterobacter species = test: Secondary in vitro Screening (MIC); format: cell-based; details: Table 2
# Procedure: as §1
# Haemophilus influenzae = test: Secondary in vitro Screening (MIC); format: cell-based; details: Table 3, each line another isolate
# Procedure: as §1
# Klebsiella pneumoniae = test: Secondary in vitro Screening (MIC); format: cell-based; details: Table 2, each line another isolate
# Procedure: as §1
# Pseudomonas aeruginosa = test: Secondary in vitro Screening (MIC); format: cell-based; details: Table 2, each line another isolate
# Procedure: as §1
# Mouse Blood Levels = format: in vivo; details: im, 40 mg/kg, IM 40 mgm./kg., phosphate buffer; for concentration at 0.25 h: 0.25 hours after administration; for concentration at 0.5 h: 0.5 hours after administration; for concentration at 1 h: 1 hour after administration; for concentration at 1.5 h: 1.5 hours after administration
# Procedure: as §1
# *Each group consisted of 6 animals and one blood sample was taken from
# (§5) Compounds prepared in phosphate buffer and dosed IM at 40 mgm./kg.
# Assay Organism: B. subtilis at pH 6.0
# [1] = Solubility (dosing preparation in phosphate buffer); format: physicochemical; details: compounds prepared in phosphate buffer for dosing
# From the text: as §5
# Staphylococcus aureus = test: Secondary in vitro Screening (MIC); format: cell-based; details: Table 2, each line another isolate
# Procedure: as §1
# [2] = Table 1, second pair of columns
# [3] = Enterobacter cloacae, Table 1, 10^-4 dilution, read-out: MIC
# [4] = Table 1, second pair of columns, 10^-4 dilution
# [5] = Klebsiella pneumoniae, Table 1, first pair of columns, read-out: MIC
# [6] = Proteus mirabilis, Table 1, 10^-4 dilution, read-out: MIC
# [7] = Pseudomonas aeruginosa, Table 1, first pair of columns, read-out: MIC
# [8] = BX1633, Table 1, 10^-2 dilution
# [9] = BX1633, Table 1, 10^-3 dilution
# [10] = BX1633, Table 1, second pair of columns, 10^-2 dilution
# [11] = Serratia marcescens, Table 1, 10^-4 dilution, read-out: MIC
# [12] = first pair of lines (Example 1B susp.)
# [13] = second pair of lines (Example 1B sol.)
compound,measurement,setting,value
"CO/N=C(\C(=O)N[C@@H]1C(=O)N2C(C(=O)O)=C(CSc3nnnn3CCN)CS[C@H]12)c1ccco1 [Example 1B, 7-(α-Methoxyiminofurylacetamido)-3-(1-[2'-aminoethyl]-tetrazol-5-ylthiomethyl)-3-cephem-4-carboxylic Acid]",MIC,"S. pneumoniae; Table 1, first pair of columns",0.008 µg/mL
same,MIC,S. pneumoniae; [2],0.004 µg/mL
same,MIC,"Str. pyogenes; Table 1, first pair of columns",0.008 µg/mL
same,MIC,Str. pyogenes; [2],0.004 µg/mL
same,MIC,"E. coli Juhl; Table 1, first pair of columns",8 µg/mL
same,MIC,E. coli Juhl; [2],2 µg/mL
same,MIC,Ent. cloacae; [3],16 µg/mL
same,MIC,Ent. cloacae; [4],8 µg/mL
same,MIC,K. pneumoniae; [5],1 µg/mL
same,MIC,"K. pneumoniae; Klebsiella pneumoniae, Table 1, second pair of columns, read-out: MIC",16 µg/mL
same,MIC,"K. pneumoniae; Table 1, first pair of columns",2 µg/mL
same,MIC,K. pneumoniae; [2],32 µg/mL
same,MIC,Pr. mirabilis; [6],0.5 µg/mL
same,MIC,Pr. mirabilis; [4],0.5 µg/mL
same,MIC,"Pr. morganii; Table 1, first pair of columns",2 µg/mL
same,MIC,Pr. morganii; [2],1 µg/mL
same,MIC,Pr. rettgeri,1 µg/mL
same,MIC,Pr. vulgaris,0.5 µg/mL
same,MIC,Ps. aeruginosa carb.,250 µg/mL
same,MIC,Ps. aeruginosa; [7],125 µg/mL
same,MIC,"Ps. aeruginosa; Pseudomonas aeruginosa, Table 1, second pair of columns, read-out: MIC",63 µg/mL
same,MIC,Ps. aeruginosa; [2],125 µg/mL
same,MIC,S. aureus BX1633; [8],1 µg/mL
same,MIC,S. aureus BX1633; [9],0.5 µg/mL
same,MIC,S. aureus BX1633; [10],0.5 µg/mL
same,MIC,"S. aureus Meth-Res; Table 1, first pair of columns",2 µg/mL
same,MIC,S. aureus Meth-Res; [2],> 125 µg/mL
same,MIC,"S. aureus Smith; Table 1, first pair of columns",0.5 µg/mL
same,MIC,S. aureus Smith; [2],0.5 µg/mL
same,MIC,Sal. enteritidis,≤ 0.25 µg/mL
same,MIC,Ser. marcescens; [11],8 µg/mL
same,MIC,Ser. marcescens; [4],8 µg/mL
same,MIC,Str. faecalis,63 µg/mL
same,MIC,S. aureus,1 µg/mL
same,MIC,Enterobacter species,2 µg/mL
same,MIC,Haemophilus influenzae,0.5 µg/mL
same,MIC,Klebsiella pneumoniae,2 µg/mL
same,MIC,Pseudomonas aeruginosa,> 63 µg/mL
same,concentration at 0.25 h,Mouse Blood Levels; [12],35000 ng/mL
same,concentration at 0.25 h,Mouse Blood Levels; [13],33600 ng/mL
same,concentration at 0.5 h,Mouse Blood Levels; [12],17900 ng/mL
same,concentration at 0.5 h,Mouse Blood Levels; [13],17400 ng/mL
same,concentration at 1 h,Mouse Blood Levels; [12],5400 ng/mL
same,concentration at 1 h,Mouse Blood Levels; [13],3900 ng/mL
same,concentration at 1.5 h,Mouse Blood Levels; [12],< 2500 ng/mL
same,concentration at 1.5 h,Mouse Blood Levels; [13],< 2600 ng/mL
same,Solubility,[1],susp. and sol.
"CO/N=C(\C(=O)N[C@@H]1C(=O)N2C(C(=O)O)=C(COC(N)=O)CS[C@H]12)c1ccco1 [Cefuroxime, sodium 6R,7R3-carbamoyloxymethyl-7-(2Z)-2-methoxyimino(fur-2-yl)acetamidoceph-3-m-4-carboxylate, reference compound]",MIC,"S. pneumoniae; Table 1, first pair of columns",0.004 µg/mL
same,MIC,S. pneumoniae; [2],0.004 µg/mL
same,MIC,"Str. pyogenes; Table 1, first pair of columns",0.004 µg/mL
same,MIC,Str. pyogenes; [2],0.004 µg/mL
same,MIC,"E. coli Juhl; Table 1, first pair of columns",4 µg/mL
same,MIC,E. coli Juhl; [2],8 µg/mL
same,MIC,Ent. cloacae; [3],> 125 µg/mL
same,MIC,K. pneumoniae; [5],2 µg/mL
same,MIC,Pr. mirabilis; [6],0.5 µg/mL
same,MIC,Pr. mirabilis; [4],0.5 µg/mL
same,MIC,"Pr. morganii; Table 1, first pair of columns",32 µg/mL
same,MIC,Pr. morganii; [2],63 µg/mL
same,MIC,Pr. rettgeri,16 µg/mL
same,MIC,Pr. vulgaris,1 µg/mL
same,MIC,Ps. aeruginosa carb.,> 1000 µg/mL
same,MIC,Ps. aeruginosa; [7],> 125 µg/mL
same,MIC,S. aureus BX1633; [8],0.5 µg/mL
same,MIC,S. aureus BX1633; [9],0.5 µg/mL
same,MIC,S. aureus BX1633; [10],2 µg/mL
same,MIC,"S. aureus Meth-Res; Table 1, first pair of columns",2 µg/mL
same,MIC,S. aureus Meth-Res; [2],> 125 µg/mL
same,MIC,"S. aureus Smith; Table 1, first pair of columns",0.13 µg/mL
same,MIC,S. aureus Smith; [2],0.5 µg/mL
same,MIC,Sal. enteritidis,0.5 µg/mL
same,MIC,Ser. marcescens; [11],> 125 µg/mL
same,MIC,Ser. marcescens; [4],> 125 µg/mL
same,MIC,Str. faecalis,> 125 µg/mL
same,MIC,Enterobacter species,2 µg/mL
same,MIC,Klebsiella pneumoniae,2 µg/mL
same,MIC,Pseudomonas aeruginosa,125 µg/mL
same,MIC,Staphylococcus aureus,0.5 µg/mL
same,concentration at 0.25 h,Mouse Blood Levels; [12],34500 ng/mL
same,concentration at 0.25 h,Mouse Blood Levels; [13],25600 ng/mL
same,concentration at 0.5 h,Mouse Blood Levels; [12],26300 ng/mL
same,concentration at 0.5 h,Mouse Blood Levels; [13],20600 ng/mL
same,concentration at 1 h,Mouse Blood Levels; [12],7600 ng/mL
same,concentration at 1 h,Mouse Blood Levels; [13],6000 ng/mL
same,concentration at 1.5 h,Mouse Blood Levels; [12],3100 ng/mL
same,concentration at 1.5 h,Mouse Blood Levels; [13],2100 ng/mL
same,Solubility,[1],sol.
